# Data reported in PubChem BioAssay AID624404 (Broad Institute, 2012).
# Records with an inconclusive call do not appear.
# Test system: D54 LucT luciferase reporter counterscreen, luminescence, 24 h
# Test: reporter signal increase, D54 LucT cells – cell-based, luminescence, cherry pick, counter-screen for N-linked glycosylation inhibitor project, dose response (AID 624404)
row,Compound,AC35 [µM]
1,Cc1ccc2nc(SCC(=O)Nc3ccc4sc(C)nc4c3)c(C#N)cc2c1,0.00483
2,CCn1ncc(C2=NOC(C(=O)NCc3ccccc3)C2)c1C (centres undefined),9.54
3,CCOC(=O)N1CCC(NC(=O)c2ccc3c(c2)N=C(C)c2c(C)ccc(C)c2S3)CC1,0.94
4,COc1cc(N=Nc2cccc(S(N)(=O)=O)c2)c2ccccc2c1N,1.66
5,CN(C)CCCN(C(=O)c1ccc(S(=O)(=O)N2CCc3ccccc3C2)cc1)c1nc2ccc(F)cc2s1,5.39
6,COc1ccc2[nH]c(C(=O)N3CCN(Cc4ccccc4)CC3)cc2c1OC,2.98
7,CCc1ccc(N2C(=O)Nc3ccccc3C2(O)C(=O)N2CCN(c3ccccn3)CC2)cc1 (centres undefined),0.493
8,COc1ccc(C(=O)CSc2nnc(-c3cc4ccccc4cc3O)n2Cc2ccco2)cc1,1.8
9,Cc1cccc(N2CCN(C(=O)c3cc(S(=O)(=O)N4CCCC4)cn3C)CC2)c1C,0.0333
10,Cc1ccc(-c2nc(NCCN(C)C)c3ccccc3n2)cc1,4.45
11,Cc1cccc(N2C(=O)N3[C@H](c4ccc(F)cc4)[C@@H]4C(=O)N(C5CCCCC5)C(=O)[C@@H]4[C@]3(Cc3ccccc3)C2=O)c1,0.541
12,Cc1cccc(N2CCN(C(=O)c3ccc(Cl)c(S(=O)(=O)NCc4ccco4)c3)CC2)c1C,0.202
13,Cc1ccc2nsnc2c1NC(=O)c1ccc(-c2cc(Cl)ccc2Cl)o1,1.55
14,Cn1c(=O)cc(OCCCC(=O)Nc2ccc3c(c2)OCCO3)c2ccccc21,0.353
15,COc1ccccc1NC(=O)/C=C/c1ccc2c(c1)OCO2,0.19
16,COc1ccc2c(c1)C(=O)N1[C@H]3c4cc(OC)ccc4OC[C@@H]3[C@H](c3ccccc3)[C@]1(C)C(=O)N2,0.0997
17,COc1cc(C(=O)N/N=C/c2ccc3c(c2)c2ccccc2n3C)ccc1O,9.59
18,Cc1ccc(S(=O)(=O)Nc2ccc3c(c2)n(C)c(=O)n3C)cc1,0.694
19,Cc1ccc(C(=O)N/C(=C\c2cccs2)C(=O)NCCc2c[nH]c3ccccc23)cc1C,0.116
20,Cc1ccc2c(c1)[C@H]1[C@H](CO2)[C@H](c2ccccc2)[C@]2(C)C(=O)Nc3cc(Cl)ccc3C(=O)N12,1.06
21,CC(C)n1c(/C=C/[C@H](O)C[C@H](O)CC(=O)O)c(-c2ccc(F)cc2)c2ccccc21,0.37
22,CC(C)[n+]1ccn(C2=C([O-])c3ccccc3C(=O)/C2=N\S(=O)(=O)c2ccccc2)c1,2.37
23,O=C(NCCN1C(=O)S/C(=C\c2ccc(Cl)cc2Cl)C1=O)C1=COCCO1,3.41
24,CCOc1nc(N=C(N)N)nc2c(C)cccc12,0.603
25,CC(C)(C)c1ccc(C(=O)NNC(=O)c2cccc(Br)c2)cc1,5.04
26,COC(=O)/C=C1\C(=O)N(c2nc3ccccc3s2)C(=S)N1c1ccc(F)cc1,0.0149

row,Compound,AC35 [µM]
1,O=c1[nH]c(=O)n([C@H]2C[C@H](O)[C@@H](CO)O2)cc1I,4.15
2,CC(CC(=O)Nc1ccc2c(c1)c(=O)n(C)n2-c1cccs1)c1ccccc1 (centres undefined),7.42
3,Cc1cc(C)nc(/N=C(\N)Nc2ccc(CC(=O)OC(C)C)cc2)n1,1.68
4,CCn1ncc(C2=NOC(C(=O)NCc3ccc(Cl)cc3)C2)c1C (centres undefined),14.7
5,Cc1noc(C)c1-c1ccc(C(=O)NCCc2ccccc2)c2occc12,2.77
6,CCNc1oc(/C=C/c2ccc(OCC)cc2)nc1C#N,0.94
7,COc1ccc([C@@H]2[C@@H]3C(=O)N(C(C)(C)C)C(=O)[C@@H]3[C@]3(Cc4ccccc4)C(=O)N(c4cccc(Cl)c4)C(=O)N23)cc1,2.18
8,Cn1c(=O)n(C)c2cc(C(=O)Nc3ccc4c(c3)OCO4)ccc21,1.87
9,COc1ccc(-c2cc3ccccc3oc2=O)cc1NC(=O)c1ccc([N+](=O)[O-])o1,0.837
10,O=C(N/N=C/c1c(-c2ccccc2)[nH]c2ccccc12)c1cccnc1,1.28
11,COc1ccc2c(c1)[C@H]1[C@H](CO2)[C@H](c2ccccc2)[C@]2(C)C(=O)Nc3ccccc3C(=O)N12,0.353
12,CC(C)/C=C1\CC/C(=C\c2cccnc2)C1=O,9.16
13,CCOC(=O)N1CCc2cc(OC)c(OC)c3c2c1cc1cc(OC)c(OC)cc13,1.94
14,O=c1[nH]c(-c2ccccc2)nc2sc(-c3ccccc3)cc12,0.188
15,O=C(NC1CCCC(C(F)(F)F)C1)c1ccc([N+](=O)[O-])o1 (centres undefined),3.97
16,CC(Nc1nc(-c2ccccc2)nc2ccccc12)c1ccccc1 (centres undefined),0.379
17,O=C(Nc1ncccc1O)c1ccc(C(=O)c2ccccc2)cc1,0.773
18,CSc1ncnc2c1ncn2CCCN[C@H](C)c1cccc2ccccc12,0.527
19,Cc1nnc2c3ccccc3c(-c3cccs3)nn12,0.312
20,CCOC(=O)c1c(C)[nH]c(C(=O)N/N=C/c2ccc(OC)c(OC)c2)c1C,0.526
21,CC12CC[C@H]3[C@@H](CCC4(O)C[C@H](O)CCC34/C=N/NC(=O)c3ccccc3[N+](=O)[O-])C1(O)CCC2C1=CC(=O)OC1 (some centres undefined),4.03
22,Cc1cccc([C@@H]2[C@@H]3C(=O)N(Cc4ccccc4)C(=O)[C@@H]3[C@]3(Cc4ccccc4)C(=O)N(c4cccc(F)c4)C(=O)N23)c1,4.36
23,COC1C(O)C(C)OC(OC2C(Oc3cccc4c(O)c5c(=O)oc6ccc(C)c7c(=O)oc(c34)c5c67)OC(C)C(O)C2O)C1O (centres undefined),0.376
24,N#Cc1ccc(-c2cccs2)nc1SCc1cccnc1,0.848
25,O=C(Nc1ccc(Cc2ccncc2)cc1)c1ccc([N+](=O)[O-])o1,2.68
26,COc1ccccc1NC(=O)c1cnc(SCC(=O)NCC2CCCO2)n(C)c1=O (centres undefined),4.93

row,Compound,AC35 [µM]
1,Cc1cc(=O)n2c3c(c4c(cc13)c(CN(C)C)cc(=O)n4C)OC2,0.0315
2,CSc1ccc(/C=N/NC(=O)c2ccccc2Cl)cc1,1.23
3,COc1ccc(OC)c2nc3c(C(=O)NCCN(C)C)cccc3nc12,0.384
4,CN(C)c1ccc(/C=N/NC(=O)c2ccccc2Cl)cc1,0.119
5,CC12CC[C@H]3[C@@H](CCC4(O)C[C@H](O)CCC34/C=N/NC(=O)c3ccccc3O)C1(O)CCC2C1=CC(=O)OC1 (some centres undefined),6.22
6,CSc1cccc(NC(=O)CCCOc2cc(=O)n(C)c3ccccc23)c1,4.53
7,COc1cc(C#Cc2ccc3cc(CCCO)oc(=O)c3c2)cc(OC)c1,0.0628
8,COC(=O)c1ccc(C)c(NC(=O)CN(c2cc(OC)ccc2OC)S(C)(=O)=O)c1,0.226
9,O=C(NC1CCCCC1)c1ccc([N+](=O)[O-])o1,1.37
10,COc1cccc(C(NC(C)=O)c2nc(-c3ccc(F)cc3OC)cs2)c1 (centres undefined),0.0633
11,COc1cccc(C2=CC(c3cccc(OC)c3OC)n3nnnc3N2)c1 (centres undefined),0.765
12,Cc1cc2cc(CNC(=O)Cc3cccs3)ccc2n1C,13.6
13,C[C@@]12C(=O)Nc3cc(Cl)ccc3C(=O)N1[C@H]1c3ccccc3OC[C@@H]1[C@@H]2c1ccccc1,0.282
14,Cn1nc(C(=O)Nc2cccc(S(=O)(=O)N3CCCCC3)c2)c2ccccc2c1=O,0.0503
15,Cn1c(SCC(=O)c2ccc(F)cc2)ncc(C(=O)Nc2ccccc2)c1=O,1.69
16,Nc1nc(CN2CCN(Cc3ccccc3)CC2)nc(Nc2ccc3c(c2)OCCO3)n1,0.251
17,COc1ccc(C(=O)Nc2sc(C)c(C)c2CN2CC(C)OC(C)C2)cc1 (centres undefined),0.352
18,Cc1cc(C)cc(N=Cc2ccc([N+](=O)[O-])s2)c1,0.724
19,N#Cc1c(-c2ccc(F)cc2)c(-c2ccc(F)cc2)nn(CCO)c1=O,0.997
20,COc1ccc(C(=O)c2ccc(OC)c(N)c2)cc1N,0.827
21,CC(=O)Nc1cc(-c2cccc(C(=O)N(C)C)c2)cn2c(-c3cccc(C(=O)N(C)C)c3)cnc12,1.74
22,COc1cc(-c2cc3nc(NCCc4ccncc4)ccn3n2)cc(OC)c1OC,0.806
23,O=C(N/N=C/c1cccs1)c1cc(-c2cccc3ccccc23)n[nH]1,3.53
24,CC1CN(c2nc(-c3ccccc3)nnc2-c2ccccc2)CC(C)O1 (centres undefined),1.39
25,O=C(c1cccs1)N1CCC(c2nc3c(nnn3Cc3cccc(Cl)c3)c(=O)[nH]2)CC1,0.174
26,COc1ccc2c(c1)[C@H]1[C@H](CO2)[C@H](c2ccccc2)[C@]2(C)C(=O)Nc3cc(F)ccc3C(=O)N12,0.326

row,Compound,AC35 [µM]
1,CCNC(=O)COc1ccc(/C=C2\COc3ccccc3C2=O)cc1OC,4.8
2,COc1cc2c(cc1OC)C(c1cccs1)N(C(=O)c1cccc(S(=O)(=O)N(C)C)c1)CC2 (centres undefined),0.64
3,COc1cc2c(cc1OC)C(c1cccs1)N(C(=O)c1cccnc1)CC2 (centres undefined),0.438
4,Cc1ccc(O)c(C(=O)C=Cc2ccccc2)c1,0.00829
5,O=C(c1ccccc1-c1ccccc1)N1CCN(c2ccccn2)CC1,2.04
6,O=C(COc1ccc(/C=N/NC(=O)c2cc3ccccc3o2)cc1Br)Nc1ccccc1,0.027
7,Cc1nn(-c2ccccc2)c2c1CC(=O)Nc1ccccc1-2,3.16
8,COc1ccc(/C=C/C(=O)c2c(O)cc(OC)cc2OC)cc1,3.21
9,O=C(/C(=C\c1ccccc1)c1nc2ccccc2[nH]1)c1ccc(Cl)cc1,0.306
10,O=C(NCCc1ccccc1)c1cc(-c2ccco2)on1,1.01
11,COc1ccc(Cl)cc1/C=C/c1ccc2cccc(O)c2n1,0.0221
12,O=C(Nc1ccccc1O)c1ccc(NS(=O)(=O)c2cccc3cccnc23)cc1,4.41
13,Cc1nnc2ccc(-c3ccc(NC(=O)c4ccco4)cc3)nn12,0.644
14,CC[C@]12c3[nH]c4cc(CCC(=O)N(C)C)ccc4c3CCN1C(=O)[C@@H](CC(=O)NC/C=C(\C)CCC=C(C)C)C[C@@H]2C(=O)N1CCN(C(=O)c2ccco2)CC1,0.267
15,Cc1cccc(/C=N\Nc2cn[nH]c(=O)c2Cl)c1,0.163
16,COc1ccc(S(=O)(=O)NCc2ccccn2)cc1NC(=O)c1ccccc1,0.834
17,Cn1c(=O)cc2c3c(c(N4CCCCC4)ccc31)C(=O)c1ccccc1-2,1.35
18,CCC(Cc1ccccc1)NC(=O)c1ccc2nc(N3CCOCC3)sc2c1 (centres undefined),0.48
19,CCOc1ccc(N2CCc3c(C)nc(SC)nc32)cc1,3.06
20,Cc1c2cnccc2c(C)c2c1oc1ccccc12,3.32
21,Cc1ccc(-c2nc(NCCCN(C)C)c3ccccc3n2)cc1,3.89
22,O=C(NC1CCCCCC1)c1c2c(nc3ccccc13)CCN(Cc1ccccc1)C2,3.45
23,O=C(NCCCn1ccnc1)c1cc(-c2ccccc2)on1,1.48
24,Cc1ccc(S(=O)(=O)N2CCN(C(=O)COC(=O)c3cc([N+](=O)[O-])ccc3NCCO)CC2)c(C)c1,1.46
25,COc1ccc2c(c1)[C@H]1[C@H](CO2)[C@H](c2ccccc2)[C@]2(C)C(=O)Nc3ccc(Cl)cc3C(=O)N12,0.148
26,COc1ccc(C2(CNC(=O)c3cc(OC)c(OC)c(OC)c3)CCCC2)cc1OC,3.41
